# Source: patent US7119115B2, “Indazole or indole derivatives, and use thereof in human medicine and more particularly in oncology” (Aventis Pharma S.A., priority 2001, dated 2006)
# What was measured:
# [1] = tested on: HDMEC cells (Human Dermal Microvascular Endothelial Cells); experiment: Detachment of endothelial cells in vitro (test for determining the inhibition of vascularization); type: cell-based; details: two hours of treatment, relative to control (untreated cells); for inhibition at 1 µM: Homo sapiens, Endothelial cell, 2 h
# From the text: A test for determining the detachment of the endothelial cells was developed in order to select the products with regard to their “in vitro” activity. This test for determining the detachment of endothelial cells is characterized in that the endothelial cells, inoculated into plates whose bottom is covered with a binder preferably chosen from gelatin, fibronectin and vitronectin, after culturing, are supplemented with a medium containing the test compound, and the cells are then labelled with a fluorescent substance, the cells which have become detached are removed by washing and the fluorescence of the remaining cells is counted in a fluorimeter.
# This test consists in measuring the detachment of endothelial cells cultured on substrata based on a binder preferably chosen from fibronectin, vitronectin and gelatin. Preferably, a day after the inoculation of the cells in plates containing, for example, 96 wells, the culture medium is replaced with a medium containing the test compound in the absence of serum. The same preparation is prepared six times at three different concentrations ([…]) and the control six times without addition of antivascular product. After two hours of treatment with the test substance, the cells are labelled with calcein-AM (1.6 μg/ml) in culture medium supplemented with 0.1% BSA. The cells that have become detached are removed by washing with the culture medium containing 0.1% bovine serum albumin; 100 μl of medium are added to each well. The fluorescence of the remaining cells is counted in a fluorimeter. The data obtained are expressed relative to the control (untreated cells).
# The evaluation of the detachment of the endothelial cells in vitro is determined in the following manner. HDMEC cells (Human Dermal Microvascular Endothelial Cells, Promocell, c-122102) are cultured in an ECGM-MV medium that contains 5% foetal calf serum, growth factors (EGF 10 ng/ml, hydrocortisone 1 μg/ml, 0.4% growth supplement with heparin) and antibiotics (amphotericin 50 ng/ml, gentamycin 50 μg/ml). For the detachment test, the HDMECs are inoculated at a rate of 5 000 cells in clear-bottomed 96-well plates (Costar) precoated with fibronectin (10 μg/ml), vitronectin (1 μg/ml) or gelatin. Twenty-four hours later, the culture medium is replaced with ECGM-MV 0.1% BSA medium containing the products indicated. The concentrations tested are 0.1–0.3 and 1 μM for each product. After two hours of treatment, the cells are labelled for one hour with calcein (1.6 μg/ml, Molecular Probes) in ECGM-MV 0.1% BSA medium. The detached cells are then removed by washing with ECGM-MV 0.1% BSA medium; 100 μl of medium is added to each well. The fluorescence of the cells that remain attached to the substratum of the well is counted using a fluorimeter, Spectrafluor Plus (Tecan excitation 485 nm, and emission 535 nm). The data are the mean of six different samples and are expressed as the percentage of the control (untreated cells).
# A cell detachment effect of greater than or equal to 15% is considered as significant.
# [2] = biological target: T1, Tubulin (Sus scrofa, UniProt P02550+P02554); experiment: Evaluation of the inhibition of tubulin polymerization (turbidimetry at 350 nm); type: biochemical; details: concentration that inhibits the rate of polymerization by 50%; pig brain tubulin 10 μM
# T1 construct: Tubulin is purified from pig brain according to published methods; from tissue; host or cells: pig brain
# Procedure: Briefly, the brains are ground and centrifuged in an extraction buffer. The tubulin contained in the supernatant of the extract undergoes two successive cycles of polymerization at 37° C. and depolymerization at 4° C., before being separated from the MAPs (Microtubule Associated Proteins) by chromatography on a phosphocellulose P11 column (Whatman). […] It is stored in a buffer known as RB/2 30% glycerol, the composition of which is 50 mM MES-NaOH [2-(N-morpholino)ethanesulphonic acid], pH 6.8; 0.25 mM MgCl2; 0.5 mM EGTA; 30% glycerol (v/v), 0.2 mM GTP (guanosine-5′-triphosphate).
# The polymerization of tubulin to microtubules is monitored by turbidimetry as follows: the tubulin is adjusted to a concentration of 10 μM (1 mg/ml) in RB/2 30% glycerol buffer to which 1 mM GTP and 6 mM MgCl2 are added. […] The increase in the turbidity of the solution is monitored at 350 nm.
# The products are dissolved at 10 mM in DMSO and added at variable concentrations (0.5 to 10 μM) to the tubulin solution before polymerization.
# T1 sequence (P02550 whole entry): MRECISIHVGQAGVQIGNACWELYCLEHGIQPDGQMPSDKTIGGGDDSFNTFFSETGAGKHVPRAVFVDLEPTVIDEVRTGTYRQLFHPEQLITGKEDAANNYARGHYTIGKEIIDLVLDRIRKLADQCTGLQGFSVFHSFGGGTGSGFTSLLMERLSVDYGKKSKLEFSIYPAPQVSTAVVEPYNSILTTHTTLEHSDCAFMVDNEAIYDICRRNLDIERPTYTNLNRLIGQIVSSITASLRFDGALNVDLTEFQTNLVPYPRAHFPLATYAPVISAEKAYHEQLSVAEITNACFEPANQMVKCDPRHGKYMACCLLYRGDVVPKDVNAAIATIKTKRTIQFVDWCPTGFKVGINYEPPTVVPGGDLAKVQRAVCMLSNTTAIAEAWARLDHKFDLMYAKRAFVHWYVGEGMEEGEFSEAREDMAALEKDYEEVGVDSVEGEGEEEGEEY
# T1 sequence (P02554 whole entry): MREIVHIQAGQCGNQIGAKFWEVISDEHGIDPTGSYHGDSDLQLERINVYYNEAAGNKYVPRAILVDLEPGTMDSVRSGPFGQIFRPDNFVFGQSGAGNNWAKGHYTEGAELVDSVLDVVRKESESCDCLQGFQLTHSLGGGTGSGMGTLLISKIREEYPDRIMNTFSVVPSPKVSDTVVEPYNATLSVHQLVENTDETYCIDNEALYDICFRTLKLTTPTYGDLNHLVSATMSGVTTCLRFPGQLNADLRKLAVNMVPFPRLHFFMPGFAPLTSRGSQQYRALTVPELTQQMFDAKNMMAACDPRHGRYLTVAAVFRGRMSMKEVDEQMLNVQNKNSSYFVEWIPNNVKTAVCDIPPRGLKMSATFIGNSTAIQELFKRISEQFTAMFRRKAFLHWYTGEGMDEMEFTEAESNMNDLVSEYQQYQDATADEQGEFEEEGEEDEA
Compound,inhibition at 1 µM [1],IC50 [2],melting point,% detachment 1 μM [1]
"Cc1noc(-c2n[nH]c3c2C=CC(c2ccccc2)(c2ccccc2)C3)n1 [Example 8-1, 3-(3-Methyl[1,2,4]oxadiazol-5-yl)-6,6-diphenyl-6,7-dihydro-1H-indazole]",24%,9000 nM,–,–
"CON=Cc1n[nH]c2c1C=CC(c1ccccc1)(c1ccccc1)C2 (mixture of isomers) [Example 6-4, 6,6-diphenyl-6,7-dihydro-1H-indazole-3-carbaldehyde O-methyloxime]",–,6000 nM,184 °C,–
"ON=C(c1n[nH]c2c1C=CC(c1ccccc1)(c1ccccc1)C2)C1CC1 (single isomer, unassigned) [Example 6-1A, cyclopropyl(6,6-diphenyl-6,7-dihydro-1H-indazol-3-yl)methanone oxime]",34%,600 nM,–,–
"O=C(Nc1n[nH]c2c1C=CC(c1ccccc1)(c1ccccc1)C2)c1ccccc1 [Example 7-4, N-[6,6-Diphenyl-6,7-dihydro-1H-indazol-3-yl]benzamide]",18%,6000 nM,–,–
"O/N=C(\c1n[nH]c2c1C=CC(c1ccc(F)cc1)(c1ccc(F)cc1)C2)C1CC1 [Example 10-8A, cyclopropyl[6,6-bis(4-fluorophenyl)-6,7-dihydro-1H-indazol-3-yl]methanone oxime]",17%,1500 nM,–,–
"CCOC(=O)c1n[nH]c2c1C=CC(c1ccccc1)(c1ccc(F)cc1)C2 (racemic) [Example 10-3A, ethyl (R,S)-6-(4-fluorophenyl)-6-phenyl-6,7-dihydro-1H-indazole-3-carboxylate]",16%,1200 nM,–,–
"(R,S)-cyclopropyl[6-(4-fluorophenyl)-6-phenyl-6,7-dihydro-1H-indazol-3-yl]methanone [Example 10-4A]",–,1000 nM,–,33%
"O=C(c1n[nH]c2c1C=CC(c1ccccc1)(c1ccccc1)C2)C1CCC1 [Example 5-2, Cyclobutyl(6,6-diphenyl-6,7-dihydro-1H-indazol-3-yl)methanone]",19%,1100 nM,–,–
"CCOC(=O)c1c[nH]c2c1C=CC(c1ccccc1)(c1ccccc1)C2 [Example 12, Ethyl 6,6-diphenyl-6,7-dihydro-1H-indole-3-carboxylate]",17%,2000 nM,–,–
"CCOC(=O)c1[nH]nc2c1C=CC(c1ccccc1)(c1ccccc1)C2 [Example 1, Ethyl 6,6-diphenyl-6,7-dihydro-2H-indazole-3-carboxylate]",20%,1500 nM,–,–
"CCOC(=O)c1n[nH]c2c1C=CC(c1ccccc1)(c1ccc(F)cc1)C2 (single isomer, unassigned) [Example 10-3B, ethyl 6-(4-fluorophenyl)-6-phenyl-6,7-dihydro-1H-indazole-3-carboxylate]",19%,1000 nM,–,–
"O=C(c1n[nH]c2c1C=CC(c1ccccc1)(c1ccccc1)C2)N1CCC1 [Example 3-2, Azetidin-1-yl(6,6-diphenyl-6,7-dihydro-1H-indazol-3-yl)methanone]",–,4500 nM,285 °C,–
"CON=C(c1[nH]nc2c1C=CC(c1ccccc1)(c1ccccc1)C2)C1CC1 [Example 6-3A, cyclopropyl(6,6-diphenyl-6,7-dihydro-2H-indazol-3-yl)methanone O-methyloxime]",26%,800 nM,–,–
"ON=C(c1n[nH]c2c1C=CC(c1ccccc1)(c1ccc(F)cc1)C2)C1CC1 (single isomer, unassigned) [Example 10-5A]",25%,1000 nM,–,–
"O=C(NC1CC1)c1n[nH]c2c1C=CC(c1ccccc1)(c1ccccc1)C2 [Example 3-1, N-(cyclopropyl)-6,6-diphenyl-6,7-dihydro-1H-indazole-3-carboxamide]",20%,2500 nM,–,–
"C=CC(=O)n1nc(N)c2c1CC(c1ccccc1)(c1ccccc1)C=C2 [Example 7-2, 1-(3-Amino-6,6-diphenyl-6,7-dihydroindazol-1-yl)propenone]",25%,5000 nM,–,–
"C=CCO/N=C(\c1n[nH]c2c1C=CC(c1ccccc1)(c1ccccc1)C2)C1CC1 [Example 6-6A, cyclopropyl(6,6-diphenyl-6,7-dihydro-1H-indazol-3-yl)methanone O-allyloxime]",17%,1000 nM,–,–
"ON=C(c1n[nH]c2c1C=CC(c1ccccc1)(c1ccccc1)C2)C1CCC1 [Example 6-2A, cyclobutyl(6,6-diphenyl-6,7-dihydro-1H-indazol-3-yl)methanone oxime]",18%,1000 nM,–,–
"O=C(c1n[nH]c2c1C=CC(c1ccccc1)(c1ccccc1)C2)C1CC1 [Example 5-1, Cyclopropyl(6,6-diphenyl-6,7-dihydro-1H-indazol-3-yl)methanone]",29%,800 nM,–,–
"O=C(c1n[nH]c2c1C=CC(c1ccc(F)cc1)(c1ccc(F)cc1)C2)C1CC1 [Example 10-7, Cyclopropyl[6,6-bis(4-fluorophenyl)-6,7-dihydro-1H-indazol-3-yl]methanone]",24%,1000 nM,–,–
